Source: the supplement of paper PMC10307832

Assays:
Assay in all cases: relative viability (nuclei count vs DMSO), 5 days (fraction); higher = more cells survive
RU-SKI 43 + Olaparib = compound: CC[C@@H](C)CNCC(=O)N1CCC2=C([C@@H]1COC3=CC=CC(=C3)C)C=CS2 [RU-SKI 43] + O=C(c1cc(Cc2n[nH]c(=O)c3ccccc23)ccc1F)N1CCN(C(=O)C2CC2)CC1 [Olaparib] (partner 8 µM)
Outline: (§1)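 Lung cancer cell lines were pin-tool dosed in 1536-well plates on the day after seeding, with either a lone drug or a fixed anchor-drug dose plus five library-drug doses (not always all listed) in √10 steps. Nuclei were counted on 4× images after 5 days. Relative viability is the ratio of treated-well to vehicle-well nuclei counts, with each value a median of duplicate plates.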

Irinotecan + Pictilisib = compound: CCc1c2c(nc3ccc(OC(=O)N4CCC(N5CCCCC5)CC4)cc13)-c1cc3c(c(=O)n1C2)COC(=O)[C@]3(O)CC [Irinotecan] + CS(=O)(=O)N1CCN(Cc2cc3nc(-c4cccc5[nH]ncc45)nc(N4CCOCC4)c3s2)CC1 [Pictilisib] (partner 1 µM)
Outline: as §1

Irinotecan + Pemetrexed = compound: CCc1c2c(nc3ccc(OC(=O)N4CCC(N5CCCCC5)CC4)cc13)-c1cc3c(c(=O)n1C2)COC(=O)[C@]3(O)CC [Irinotecan] + Nc1nc2[nH]cc(CCc3ccc(C(=O)N[C@@H](CCC(=O)O)C(=O)O)cc3)c2c(=O)[nH]1 [Pemetrexed] (partner 0.2 µM)
Outline: as §1

MK-8033 + Trametinib = compound: Cn1cc(-c2cnc3ccc4ccc(CS(=O)(=O)NCc5ccccn5)cc4c(=O)c3c2)cn1 [MK-8033] + CC(=O)Nc1cccc(-n2c(=O)n(C3CC3)c(=O)c3c(Nc4ccc(I)cc4F)n(C)c(=O)c(C)c32)c1 [Trametinib] (partner 0.02 µM)
Outline: as §1

| Cell Line | relative viability (RU-SKI 43 + Olaparib; first compound 0.1 µM) | relative viability (RU-SKI 43 + Olaparib; first compound 0.3162 µM) | relative viability (RU-SKI 43 + Olaparib; first compound 1 µM) | relative viability (RU-SKI 43 + Olaparib; first compound 3.162 µM) | relative viability (RU-SKI 43 + Olaparib; first compound 10 µM) | relative viability (Irinotecan + Pictilisib; first compound 0.6325 µM) | relative viability (Irinotecan + Pictilisib; first compound 2 µM) | relative viability (Irinotecan + Pictilisib; first compound 6.325 µM) | relative viability (Irinotecan + Pictilisib; first compound 20 µM) | relative viability (Irinotecan + Pemetrexed; first compound 0.6325 µM) | relative viability (Irinotecan + Pemetrexed; first compound 2 µM) | relative viability (Irinotecan + Pemetrexed; first compound 6.325 µM) | relative viability (Irinotecan + Pemetrexed; first compound 20 µM) | relative viability (MK-8033 + Trametinib; first compound 0.02 µM) | relative viability (MK-8033 + Trametinib; first compound 0.06325 µM) | relative viability (MK-8033 + Trametinib; first compound 0.2 µM) | relative viability (MK-8033 + Trametinib; first compound 0.6325 µM) | relative viability (MK-8033 + Trametinib; first compound 2 µM) |
| --- | --- | --- | --- | --- | --- | --- | --- | --- | --- | --- | --- | --- | --- | --- | --- | --- | --- | --- |
| NCI-H2170 | 0.587 | 0.683 | 0.599 | 0.61 | 0.59 | 0.32 | 0.242 | 0.224 | 0.157 | 0.277 | 0.245 | 0.238 | 0.151 | 0.838 | 0.92 | 0.844 | 0.922 | 0.824 |
| LOU-NH91 | 0.908 | 0.94 | 0.973 | 0.926 | 0.879 | 0.517 | 0.518 | 0.409 | 0.35 | 0.392 | 0.402 | 0.338 | 0.182 | 0.761 | 0.73 | 0.756 | 0.789 | 0.792 |
| NCI-H596 | 0.719 | 0.548 | 0.654 | 0.712 | 0.709 | 0.395 | 0.394 | 0.382 | 0.484 | 0.471 | 0.608 | 0.595 | 0.748 | 0.683 | 0.916 | 0.733 | 0.837 | 0.877 |
| LXF-289 | 1.09 | 1.09 | 1.17 | 1.16 | 0.948 | 0.745 | 0.7 | 0.206 | 0.158 | 0.733 | 0.854 | 0.54 | 0.212 | 0.702 | 0.616 | 0.685 | 0.711 | 0.659 |
| NCI-H2009 | 0.659 | 0.803 | 0.735 | 0.698 | 0.584 | 0.342 | 0.515 | 0.232 | 0.0786 | 0.783 | 0.439 | 0.211 | 0.121 | 0.282 | 0.255 | 0.215 | 0.291 | 0.238 |
| NCI-H1395 | 0.452 | 0.417 | 0.451 | 0.477 | 0.46 | – | 0.539 | 0.471 | 0.35 | – | 0.754 | 0.518 | 0.246 | 0.911 | 0.983 | 1.01 | 1.05 | 1.03 |
| NCI-H1993 | 1.12 | 1.22 | 1.16 | 0.948 | 0.942 | 0.695 | 0.816 | 0.628 | 0.443 | – | 0.637 | 0.545 | 0.506 | 0.55 | 0.506 | 0.427 | 0.469 | 0.456 |
| HCC-366 | 0.307 | 0.464 | 0.314 | 0.424 | 0.31 | 0.181 | 0.142 | 0.0733 | 0.0469 | 0.15 | 0.192 | 0.0569 | 0.0611 | 0.43 | 0.346 | 0.314 | 0.279 | 0.362 |
| NCI-H322M | 0.703 | 0.817 | 0.76 | 0.797 | 0.703 | 0.532 | 0.507 | 0.344 | 0.338 | 0.568 | 0.659 | 0.518 | 0.266 | 0.527 | 0.565 | 0.488 | 0.585 | 0.476 |
